{"source": "patent US8119633B2", "about": "“Substituted sulfonamide compounds” (Gruenenthal GmbH, priority 2007, dated 2012)", "key": {"[1]": {"target": "T1, bradykinin receptor 1 (B1R) of the rat (Rattus norvegicus, UniProt P97583)", "T1 construct": "expressed in transfected cells; host or cells: CHO K1 cells", "T1 sequence (P97583 1-337)": "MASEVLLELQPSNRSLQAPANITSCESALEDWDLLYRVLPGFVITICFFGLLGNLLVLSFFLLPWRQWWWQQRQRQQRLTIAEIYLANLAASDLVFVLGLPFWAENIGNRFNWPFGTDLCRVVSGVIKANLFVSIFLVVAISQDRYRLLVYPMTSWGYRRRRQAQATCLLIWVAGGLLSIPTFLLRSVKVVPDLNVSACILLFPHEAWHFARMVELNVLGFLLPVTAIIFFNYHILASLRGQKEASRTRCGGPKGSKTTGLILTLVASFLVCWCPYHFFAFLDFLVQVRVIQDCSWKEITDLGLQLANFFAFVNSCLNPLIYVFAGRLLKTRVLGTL", "test": "Functional study on the bradykinin receptor 1 (B1R), rat: FLIPR Ca2+ influx assay", "assay_type": "cell-based", "from_the_text": "(§1) The agonistic or antagonistic action of substances can be determined on the bradykinin receptor 1 (B1R) of the species human and rat using the following assay. According to this assay, the Ca^2+ influx through the channel is quantified with the aid of a Ca^2+-sensitive dye (Fluo-4 type, Molecular Probes Europe BV, Leiden, Netherlands) using a Fluorescent Imaging Plate Reader (FLIPR, Molecular Devices, Sunnyvale, USA).\n(§2) Chinese hamster ovary cells (CHO K1 cells) which have been stably transfected with the human B1R gene (hB1R cells) or with the B1R gene of the rat (rB1R cells) are used. For functional studies, the cells are plated out on black 96-well plates having a clear base (BD Biosciences, Heidelberg, Germany or Greiner, Frickenhausen, Germany) in a density of 20,000-35,000 cells/well. The cells are incubated overnight at 37° C. and with 5% CO2 in culture medium (hB1R cells: Nutrient Mixture Ham's F12, Gibco Invitrogen GmbH, Karlsruhe, Germany or DMEM, Sigma-Aldrich, Taufkirchen, Germany; rB1R cells: D-MEM/F12, Gibco Invitrogen GmbH, Karlsruhe, Germany), with 10 vol. % FBS (fetal bovine serum, Gibco Invitrogen GmbH, Karlsruhe, Germany or PAN Biotech GmbH, Aidenbach, Germany).\n(§3) On the following day, the cells are loaded for 60 minutes at 37° C. with 2.13 μM Fluo-4 (Molecular Probes Europe BV, Leiden, Netherlands) in HBSS buffer (Hank's buffered saline solution, Gibco Invitrogen GmbH, Karlsruhe, Germany) with 2.5 mM probenecid (Sigma-Aldrich, Taufkirchen, Germany) and 10 mM HEPES (Sigma-Aldrich, Taufkirchen, Germany). The plates are then washed twice with HBSS buffer, and HBSS buffer additionally containing 0.1% BSA (bovine serum albumin; Sigma-Aldrich, Taufkirchen, Germany), 5.6 mM glucose and 0.05% gelatin (Merck KGaA, Darmstadt, Germany) is added to the plates. After incubation for a further 20 minutes at room temperature, the plates are inserted into the FLIPR for Ca^2+ measurement. Alternatively, washing is carried out with buffer A (15 mM HEPES, 80 mM NaCl, 5 mM KCl, 1.2 mM CaCl2, 0.7 mM MgSO4, 2 g/l glucose, 2.5 mM probenecid) followed by loading with buffer A with added 2.5 μM Fluo-4 and 0.025% Pluronic F127 (Sigma-Aldrich, Taufkirchen, Germany). The cells are then washed twice with buffer A and incubated for 30 minutes at room temperature with buffer A additionally containing 0.05% BSA and 0.05% gelatin and are then inserted into the FLIPR for Ca^2+ measurement.\n(§4) The Ca^2+-dependent fluorescence is measured before and after the addition of substances (λex=488 nm, λem=540 nm). Quantification is carried out by measuring the highest fluorescence intensity (FC, fluorescence counts) over time.\n(§5) The FLIPR protocol consists of two substance additions. Test substances (10 μM) are first pipetted onto the cells and the Ca^2+ influx is compared with the control (hB1R: Lys-Des-Arg^9-bradykinin>=0.5 nM; rB1R: Des-Arg^9-bradykinin 10 μM). This gives the activation in %, based on the Ca^2+ signal after addition of Lys-Des-Arg^9-bradykinin (>=0.5 nM) or Des-Arg^9-bradykinin (10 μM).\n(§6) After 10-20 minutes' incubation, Lys-Des-Arg^9-bradykinin (hB1R) or Des-Arg^9-bradykinin (rB1R) is applied in the concentration of the EC80, and the influx of Ca^2+ is likewise determined.\n(§7) Antagonists lead to suppression of the Ca^2+ influx. The % inhibition compared with the maximum achievable inhibition is calculated.\n(§8) In order to determine the IC50 value, the substances are added in various concentrations. Duplicate or triplicate determinations (n=2 or n=3) are carried out, and these are repeated in at least one further independent experiment (N>=2)."}, "[2]": {"target": "T2, human bradykinin receptor 1 (B1R) (Homo sapiens, UniProt P46663)", "T2 construct": "expressed in transfected cells; host or cells: CHO K1 cells", "T2 sequence (P46663 1-353)": "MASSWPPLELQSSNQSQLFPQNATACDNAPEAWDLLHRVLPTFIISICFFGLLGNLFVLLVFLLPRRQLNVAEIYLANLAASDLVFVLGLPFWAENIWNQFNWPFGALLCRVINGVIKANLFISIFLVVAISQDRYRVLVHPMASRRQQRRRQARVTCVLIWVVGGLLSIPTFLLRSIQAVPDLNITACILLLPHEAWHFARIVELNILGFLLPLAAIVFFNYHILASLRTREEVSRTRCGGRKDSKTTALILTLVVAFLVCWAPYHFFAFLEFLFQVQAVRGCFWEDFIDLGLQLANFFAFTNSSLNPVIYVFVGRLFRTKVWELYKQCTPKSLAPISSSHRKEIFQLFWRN", "test": "Functional study on the bradykinin receptor 1 (B1R), human: FLIPR Ca2+ influx assay", "assay_type": "cell-based", "from_the_text": "Functional Study on the Human Bradykinin Receptor 1 (B1R)\nas §1, §2, §3, §4, §5, §6, §7, §8"}, "[3]": {"conditions": "test substance 10 μM, CHO K1 cells transfected with rat B1R, Des-Arg9-bradykinin at EC80, Ca2+ influx (Fluo-4, FLIPR), read-out: B1R antagonism, rat [10 μM] % inhibition"}}, "note": "Read-outs that look alike come from different tables or passages of the source."}
{"smiles": "CN(C)C(c1ccccc1)C1CCC(NC(=O)c2c(N(C)S(=O)(=O)c3ccc(Cl)c(Cl)c3)sc3c2CCCC3)CC1", "note": "(centres unmarked) [Example 12, 2-[(3,4-dichloro-benzenesulfonyl)-methyl-amino]-4,5,6,7-tetrahydrobenzo[b]thiophene-3-carboxylic acid [4-(dimethylamino-phenyl-methyl)cyclohexyl]-amide]", "values": [{"measurement": "inhibition at 10 µM", "setting": "[1]; [3]", "value": 0, "unit": "%"}]}
{"smiles": "CN(C)C(c1ccc(Cl)cc1)C1CCC(CNC(=O)CC2c3ccccc3CCN2S(=O)(=O)c2ccc(Cl)c(Cl)c2)CC1", "note": "(centres unmarked) [Example 32, N-{4-[(4-chloro-phenyl)-dimethylamino-methyl]-cyclohexylmethyl}-2-[2-(3,4-dichloro-benzenesulfonyl)-1,2,3,4-tetrahydro-isoquinolin-1-yl]-acetamide]", "values": [{"measurement": "inhibition at 10 µM", "setting": "[2]; test substance 10 μM, CHO K1 cells transfected with human B1R, Lys-Des-Arg9-bradykinin at EC80, Ca2+ influx (Fluo-4, FLIPR), read-out: B1R antagonism, human [10 μM] % inhibition", "value": 10.7, "unit": "%"}, {"measurement": "inhibition at 10 µM", "setting": "[1]; [3]", "value": 15, "unit": "%"}]}
{"smiles": "CN(C)C(c1ccccc1)C1CCC(NC(=O)C2Cc3ccccc3N2S(=O)(=O)c2ccc(Cl)c(Cl)c2)CC1", "note": "(centres unmarked) [Example 91, 1-(3,4-dichlorophenylsulfonyl)-N-(4-((dimethylamino)(phenyl)methyl)cyclohexyl)indoline-2-carboxamide]", "values": [{"measurement": "inhibition at 10 µM", "setting": "[2]; CHO-K1, read-out: B1R antagonism, human [10 μM] % inhibition", "value": 17.8, "unit": "%"}, {"measurement": "inhibition at 10 µM", "setting": "[1]; CHO-K1, read-out: B1R antagonism, rat [10 μM] % inhibition", "value": 8, "unit": "%"}]}
{"smiles": "CN(C)C(c1cccs1)C1CCC(CCNC(=O)c2c(N(C)S(=O)(=O)c3ccc(Cl)c(Cl)c3)sc3c2CCCC3)CC1", "note": "(centres unmarked) [Example 53, 2-(3,4-dichloro-N-methylphenylsulfonamido)-N-(2-(4-((dimethylamino)(thiophen-2-yl)methyl)cyclohexyl)ethyl)-4,5,6,7-tetrahydrobenzo[b]thiophene-3-carboxamide]", "values": [{"measurement": "inhibition at 10 µM", "setting": "[1]; [3]", "value": 12, "unit": "%"}]}
{"smiles": "CN(C)C(c1cccc(F)c1)C1CCC(CCNC(=O)c2c(N(C)S(=O)(=O)c3ccc(Cl)c(Cl)c3)sc3c2CCCC3)CC1", "note": "(centres unmarked) [Example 51, 2-(3,4-dichloro-N-methylphenylsulfonamido)-N-(2-(4-((dimethylamino)(3-fluorophenyl)methyl)cyclohexyl)ethyl)-4,5,6,7-tetrahydrobenzo[b]thiophene-3-carboxamide]", "values": [{"measurement": "inhibition at 10 µM", "setting": "[1]; [3]", "value": 1, "unit": "%"}]}
{"smiles": "CN(C)C(CCc1ccccc1)C1CCC(CNC(=O)C2Cc3ccccc3N2S(=O)(=O)c2ccc(Cl)c(Cl)c2)CC1", "note": "(centres unmarked) [Example 96, 1-(3,4-dichlorophenylsulfonyl)-N-((4-(1-(dimethylamino)-3-phenylpropyl)cyclohexyl)methyl)indoline-2-carboxamide]", "values": [{"measurement": "inhibition at 10 µM", "setting": "[1]; [3]", "value": 12, "unit": "%"}]}
{"smiles": "COc1ccc(S(=O)(=O)N(C)C2(C(=O)NCCC3CCC(C(c4ccccc4)N(C)C)CC3)CCCCC2)cc1", "note": "(centres unmarked) [Example 100, N-(2-(4-((dimethylamino)(phenyl)methyl)cyclohexyl)ethyl)-1-(4-methoxy-N-methylphenylsulfonamido)cyclohexanecarboxamide]", "values": [{"measurement": "inhibition at 10 µM", "setting": "[1]; [3]", "value": -2, "unit": "%"}]}
{"smiles": "CN(C)C(c1cccs1)C1CCC(CNC(=O)c2c(N(C)S(=O)(=O)c3ccc(Cl)c(Cl)c3)sc3c2CCCC3)CC1", "note": "(centres unmarked) [Example 49, 2-[(3,4-dichloro-benzenesulfonyl)-methyl-amino]-4,5,6,7-tetrahydrobenzo[b]thiophene-3-carboxylic acid [4-(dimethylamino-thiophen-2-yl-methyl)cyclohexylmethyl]-amide]", "values": [{"measurement": "inhibition at 10 µM", "setting": "[1]; [3]", "value": 19, "unit": "%"}]}
{"smiles": "CN(C)C(c1cccs1)C1CCC(CNC(=O)c2ccccc2N(C)S(=O)(=O)c2ccc(Cl)c(Cl)c2)CC1", "note": "(centres unmarked) [Example 42, 2-[(3,4-dichloro-benzenesulfonyl)-methyl-amino]-N-[4-(dimethylamino-thiophen-2-yl-methyl)-cyclohexylmethyl]-benzamide]", "values": [{"measurement": "inhibition at 10 µM", "setting": "[1]; [3]", "value": 3, "unit": "%"}]}
{"smiles": "CN(C)C(c1ccc(F)cc1)C1CCC(CNC(=O)c2c(N(C)S(=O)(=O)c3ccc(Cl)c(Cl)c3)sc3c2CCCC3)CC1", "note": "(centres unmarked) [Example 47, 2-[(3,4-dichloro-benzenesulfonyl)-methyl-amino]-4,5,6,7-tetrahydrobenzo[b]thiophene-3-carboxylic acid {4-[dimethylamino-(4-fluoro-phenyl)methyl]-cyclohexylmethyl}-amide]", "values": [{"measurement": "inhibition at 10 µM", "setting": "[1]; [3]", "value": 12, "unit": "%"}]}
{"smiles": "CN(C)C(c1ccccc1)C1CCC(CNC(=O)c2c(N(C)S(=O)(=O)c3ccc(Cl)c(Cl)c3)sc3c2CCCC3)CC1", "note": "(centres unmarked) [Example 46, 2-[(3,4-dichloro-benzenesulfonyl)-methyl-amino]-4,5,6,7-tetrahydrobenzo[b]thiophene-3-carboxylic acid [4-(dimethylamino-phenyl-methyl)cyclohexylmethyl]-amide]", "values": [{"measurement": "inhibition at 10 µM", "setting": "[1]; [3]", "value": -9, "unit": "%"}]}
{"smiles": "CN(C)C(c1ccc(Cl)cc1)C1CCC(CNC(=O)c2c(N(C)S(=O)(=O)c3ccc(Cl)c(Cl)c3)sc3c2CCCC3)CC1", "note": "(centres unmarked) [Example 48, 2-[(3,4-dichloro-benzenesulfonyl)-methyl-amino]-4,5,6,7-tetrahydrobenzo[b]thiophene-3-carboxylic acid {4-[(4-chloro-phenyl)-dimethylamino-methyl]-cyclohexylmethyl}-amide]", "values": [{"measurement": "inhibition at 10 µM", "setting": "[1]; [3]", "value": 19, "unit": "%"}]}
{"smiles": "CN(C)C(c1ccc(F)cc1)C1CCC(CCNC(=O)c2c(N(C)S(=O)(=O)c3ccc(Cl)c(Cl)c3)sc3c2CCCC3)CC1", "note": "(centres unmarked) [Example 52, 2-(3,4-dichloro-N-methylphenylsulfonamido)-N-(2-(4-((dimethylamino)(4-fluorophenyl)methyl)cyclohexyl)ethyl)-4,5,6,7-tetrahydrobenzo[b]thiophene-3-carboxamide]", "values": [{"measurement": "inhibition at 10 µM", "setting": "[1]; [3]", "value": -22, "unit": "%"}]}
{"smiles": "CN(C)C(c1ccc(Cl)cc1)C1CCC(CCNC(=O)c2c(N(C)S(=O)(=O)c3ccc(Cl)c(Cl)c3)sc3c2CCCC3)CC1", "note": "(centres unmarked) [Example 50, N-(2-(4-((4-chlorophenyl)(dimethylamino)methyl)cyclohexyl)ethyl)-2-(3,4-dichloro-N-methylphenylsulfonamido)-4,5,6,7-tetrahydrobenzo[b]thiophene-3-carboxamide]", "values": [{"measurement": "inhibition at 10 µM", "setting": "[1]; [3]", "value": 11, "unit": "%"}]}
{"smiles": "CN(C)C(c1ccc(F)cc1)C1CCC(NC(=O)C2Cc3ccccc3N2S(=O)(=O)c2ccc(Cl)c(Cl)c2)CC1", "note": "(centres unmarked) [Example 94, 1-(3,4-dichlorophenylsulfonyl)-N-(4-((dimethylamino)(4-fluorophenyl)methyl)cyclohexyl)indoline-2-carboxamide]", "values": [{"measurement": "inhibition at 10 µM", "setting": "[1]; [3]", "value": -19, "unit": "%"}]}
